In data set [1] the target is T1, hERG potassium channel (Homo sapiens, UniProt Q12809).
T1 construct: expressed in transfected cells; host or cells: HEK293
As to the kind of experiment: hERG Flux assay (FLIPR). Conditions: HEK293 cells stably-expressing hERG, thallium flux. Format: cell-based. As to the method:
Cells are incubated at 21° C. for 45 minutes.
Data Analysis. […] The raw fluorescence units data files generated on the FLIPR plate reader are automatically exported and processed by in-house data analysis tools.
A general note: hERG is a cardiac potassium channel; its block is linked to QT prolongation.

Data set [2] deals with genotype 1b HCV replicon in Huh-7 cells. Description: HCV Replicon Luciferase Assay. Format: cell-based. Conditions: Hepatitis C virus, Huh-7, 72 h. As for the experimental part: Cell Lines. The cell lines used to evaluate compounds consist of a human hepatocyte derived cell line (Huh-7) that constitutively expresses a genotype 1b HCV replicon containing a Renilla luciferase reporter gene. These cells were maintained in Dulbecco's modified Eagle medium (DMEM) containing 10% FBS, 100 U/mL penicillin/streptomycin and 1.0 mg/mL G418.
HCV Replicon Luciferase Assay. To evaluate compound efficacy, titrated compounds were transferred to sterile 384-well tissue culture treated plates, and the plates were seeded with HCV replicon cells (50 μL at a density of 2.4×10^3 cells/well) in DMEM containing 4% FBS (final DMSO concentration at 0.5%). After 3 days incubation at 37° C., cells were analyzed for Renilla Luciferase activity using the EnduRen substrate (Promega cat #E6485) according to the manufacturer's directions. Briefly, the EnduRen substrate was diluted in DMEM and then added to the plates to a final concentration of 7.5 μM. The plates were incubated for at least 1 h at 37° C. then read on a Viewlux Imager (PerkinElmer) using a luminescence program. The 50% effective concentration (EC50) was calculated using the four-parameter logistic formula noted above.
(A replicon is a self-replicating genome or part of one, used to study replication in cells.)

In data set [3] the target is T1, hERG potassium channel. As to the kind of experiment: hERG patch clamp assay. Format: cell-based. Conditions: HEK293 cells stably transfected with hERG cDNA, peak tail currents, read-out: % Inhibition (Mean ± SE). From the text:
Cell Line. Human embryonic kidney (HEK293) cells stably transfected with human ether-a-go-go related gene (hERG) cDNA were used in the hERG assay. The biophysical and pharmacological properties of recombinant hERG channels expressed in HEK293 cells and of native IKr channels in human cardiac cells are nearly identical. Several known hERG blockers, including dofetilide, terfenadine, cisapride and E-4031 inhibit recombinant hERG currents in the hERG stable cell line and IKr currents in isolated cardiac myocytes with identical potency.
Patch Clamp. […]
Initially, a current-voltage relationship was generated in the control bath solution using the following voltage protocol. hERG currents were elicited by 2 second step depolarizations applied from a holding potential of −80 mV to test potentials ranging from −70 mV to +60 mV. […] The peak tail current was monitored until a new steady-state in the presence of test article was achieved. This was followed by the application of the next higher concentration of test article to be tested, and was repeated until all concentrations of test article had been evaluated. Effects of test article on hERG channel were calculated by measuring inhibition of peak tail currents. Percent inhibition of tail currents was plotted as a function of test article concentration to quantify hERG channel inhibition. […] All currents were recorded at room temperature 25° C.

For data set [4], the target named is NS5B protein of HCV, genotype 1b (Hepatitis C virus genotype 1b, UniProt Q9WMX2). Description: biochemical. As to the method:
The cDNA encoding the NS5B protein of HCV, genotype 1b, was cloned into the pET21a expression vector. The protein was expressed with an 18 amino acid C-terminal truncation to enhance the solubility. The E. coli competent cell line BL21(DE3) was used for expression of the protein. Cultures were grown at 37° C. for ˜4 hours until the cultures reached an optical density of 2.0 at 600 nm. The cultures were cooled to 20° C. and induced with 1 mM IPTG. Fresh ampicillin was added to a final concentration of 50 μg/mL and the cells were grown overnight at 20° C.
The lysis buffer consisted of 20 mM Tris-HCl, pH 7.4, 500 mM NaCl, 0.5% triton X-100, 1 mM DTT, 1 mM EDTA, 20% glycerol, 0.5 mg/mL lysozyme, 10 mM MgCl2, 15 ug/mL deoxyribonuclease I, and Complete TM protease inhibitor tablets (Roche). After addition of the lysis buffer, frozen cell pellets were resuspended using a tissue homogenizer. […]
After incubating for at least 15 minutes, plates were read on an Amersham LEADseeker multimodality imaging system.
IC50 values for compounds were determined using ten different [I]. IC50 values were calculated from the inhibition using the four-parameter logistic formula y=A+((B−A)/(1+((C/x)^D))), where A and B denote minimal and maximal % inhibition, respectively, C is the IC50, D is hill slope and x represents compound concentration.

This passage reports IC50, EC50 and inhibition results from patent US8716275B2, “Compound for the treatment of hepatitis C” (Bristol-Meyers Squibb Company, priority 2011, dated 2014).

The structures appear in SMILES notation.

T1 sequence (Q12809 whole entry): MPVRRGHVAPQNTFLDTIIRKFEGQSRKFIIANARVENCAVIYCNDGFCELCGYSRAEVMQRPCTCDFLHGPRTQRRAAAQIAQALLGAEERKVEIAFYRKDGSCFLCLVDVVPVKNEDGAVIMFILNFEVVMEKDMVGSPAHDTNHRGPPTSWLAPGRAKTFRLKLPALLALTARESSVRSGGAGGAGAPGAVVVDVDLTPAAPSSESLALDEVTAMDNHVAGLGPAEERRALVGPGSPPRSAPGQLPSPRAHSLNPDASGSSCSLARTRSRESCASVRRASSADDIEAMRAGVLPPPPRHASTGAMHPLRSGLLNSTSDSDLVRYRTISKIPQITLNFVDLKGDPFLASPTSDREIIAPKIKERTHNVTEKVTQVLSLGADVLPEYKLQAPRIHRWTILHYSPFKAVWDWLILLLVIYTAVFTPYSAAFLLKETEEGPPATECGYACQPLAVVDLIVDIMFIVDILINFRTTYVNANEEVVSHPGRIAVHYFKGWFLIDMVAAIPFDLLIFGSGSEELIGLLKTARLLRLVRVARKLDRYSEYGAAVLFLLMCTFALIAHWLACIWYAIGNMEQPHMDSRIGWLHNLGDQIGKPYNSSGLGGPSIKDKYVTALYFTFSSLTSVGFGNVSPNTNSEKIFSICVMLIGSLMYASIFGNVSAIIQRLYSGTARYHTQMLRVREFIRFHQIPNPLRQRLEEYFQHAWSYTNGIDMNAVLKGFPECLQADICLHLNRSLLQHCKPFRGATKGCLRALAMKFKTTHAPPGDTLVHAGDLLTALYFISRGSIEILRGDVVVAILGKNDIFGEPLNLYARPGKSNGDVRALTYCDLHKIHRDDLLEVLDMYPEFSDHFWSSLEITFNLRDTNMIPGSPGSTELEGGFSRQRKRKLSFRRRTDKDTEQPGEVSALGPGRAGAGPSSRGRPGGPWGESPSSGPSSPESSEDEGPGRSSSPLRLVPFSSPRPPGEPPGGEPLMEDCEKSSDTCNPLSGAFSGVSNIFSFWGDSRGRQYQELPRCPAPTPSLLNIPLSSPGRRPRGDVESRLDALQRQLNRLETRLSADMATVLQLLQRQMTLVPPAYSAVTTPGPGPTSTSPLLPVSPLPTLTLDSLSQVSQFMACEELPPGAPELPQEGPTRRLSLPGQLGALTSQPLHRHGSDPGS
NS5B protein of HCV, genotype 1b, sequence (Q9WMX2 2420-2992): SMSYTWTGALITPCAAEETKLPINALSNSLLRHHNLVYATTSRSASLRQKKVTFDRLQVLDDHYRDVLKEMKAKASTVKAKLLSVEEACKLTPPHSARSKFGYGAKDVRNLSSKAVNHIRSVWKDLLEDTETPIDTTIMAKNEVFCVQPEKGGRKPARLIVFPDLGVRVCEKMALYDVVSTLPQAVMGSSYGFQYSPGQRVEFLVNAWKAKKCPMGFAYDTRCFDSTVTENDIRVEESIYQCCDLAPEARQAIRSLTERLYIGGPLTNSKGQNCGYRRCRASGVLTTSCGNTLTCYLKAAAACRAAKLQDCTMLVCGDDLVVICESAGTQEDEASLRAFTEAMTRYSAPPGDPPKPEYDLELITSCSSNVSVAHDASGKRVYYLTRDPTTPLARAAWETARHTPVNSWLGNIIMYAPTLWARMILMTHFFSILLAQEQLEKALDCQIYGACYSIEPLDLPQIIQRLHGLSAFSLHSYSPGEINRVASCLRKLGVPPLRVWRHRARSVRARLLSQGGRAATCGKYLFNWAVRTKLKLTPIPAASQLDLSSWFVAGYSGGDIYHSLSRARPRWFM

`CN1CC2CCC(C1)N2C(=O)[C@]12C[C@H]1c1cc(F)ccc1-c1c(C3CCCCC3)c3ccc(C(=O)NS(=O)(=O)C4(C)CC4)cc3n1C2` [Compound I, (1aR,12bS)-8-cyclohexyl-11-fluoro-N-((1-methylcyclopropyl)sulfonyl)-1a-((3-methyl-3,8-diazabicyclo[3.2.1]oct-8-yl)carbonyl)-1,1a,2,12b-tetrahydrocyclopropa[d]indolo[2,1-a][2]benzazepine-5-carboxamide]: the IC50 was found to be 23400 nM on hERG potassium channel [1] and 5 nM in data set [4]. The same compound came in with an EC50 in data set [2] of 7 nM. Also, the inhibition at 10 μM on hERG potassium channel [3] (pH 7.4, Conc. 10 μM) was determined as 30.5 ± 1.9%. At hERG potassium channel [3] (pH 7.4, Conc. 30 μM), the inhibition at 30 μM was 43.4 ± 2%.

As usually defined, the IC50 is the concentration at which inhibition is half-maximal. Read a high IC50 as weaker potency. For orientation: EC50 means the concentration that produces a half-maximal response. Usually inhibition stands for the drop in the measured response relative to a control, in per cent.
